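Values below derive from 48-hour exposures of cells grown in 96-well plates, with endpoints linearly interpolated between the two concentrations bracketing the appropriate inhibition level. At the GI50, growth is halved. At the TGI there is no net growth.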
What follows are compounds tested on MDA-MB-468 breast (assay: NCI-60 cell line screen, 48 h).

Row | Structure (SMILES) | GI50 [µM] | TGI [µM]
1 | CC(=O)C(=Cc1ccc(C=C(C(C)=O)C(C)=O)cc1)C(C)=O | 1.51 | 3.14
2 | COc1cc(Nc2c(C#N)cnc3cc(OCCCN4CCN(C)CC4)c(OC)cc23)c(Cl)cc1Cl | 1.63 | 4.14
3 | CN(C)C(=S)/N=c1\ssc(=S)n1Cc1ccccc1 | 0.5 | 35.2
4 | COc1ccc(-c2nc(-c3ccccc3)c(-c3ccccc3)[nH]2)cc1OC1CCCC1 | > 100 | > 100
5 | O=C(Nc1cccc(-n2cc(-c3ccncc3)c(-c3cc(O)cc(Cl)c3)n2)c1)Nc1ccc(Cl)c(C(F)(F)F)c1 | 2.08 | 8.42
6 | C=CC1CN2CCC1CC2C(O)c1ccnc2ccc(OC)cc12 (centres undefined) | > 100 | > 100
7 | O=c1ccn(C2CC(O)C(CO)O2)c(=O)[nH]1 (centres undefined) | > 5000 | > 5000
8 | COC(=O)[C@@]12OC[C@]34[C@H]([C@@H](O)[C@@H]1O)[C@@]1(C)[C@H](O)C(=O)C=C(C)[C@@H]1C[C@H]3OC(=O)C(OC(C)=O)[C@@H]24 (some centres undefined) | 0.0208 | 0.0624
9 | Cc1cc(C(=C2C=CC(=Nc3ccccc3)C=C2)c2ccc(Nc3ccccc3)cc2)ccc1N | 0.332 | 1.29
10 | COc1cccc(-c2nn(-c3ccccc3)cc2-c2ccnc(NCCCNC(=O)Nc3ccc(Cl)c(Cl)c3)c2)c1 | 1.92 | 4.34
11 | O=C1C(N2CC2)=C(N2CC2)C(=O)C(N2CC2)=C1N1CC1 | 0.395 | 2.44
12 | O=C(Nc1ccncc1)C(=O)c1cn(Cc2ccc(Cl)cc2)c2ccccc12 | 0.0271 | 0.346
13 | COC1=CC(c2ccc[nH]2)=N/C1=C\c1[nH]c(C)c(C(=O)CCCCC(=O)NC(C)(C)C)c1C | 1.52 | 3.58
14 | c1csc(-c2cn3nc(-c4c[nH]c5ccccc45)sc3n2)c1 | 2.92 | 27.8
15 | COc1cc2c(cc1O)CC[C@@H]1[C@@H]2CC[C@]2(C)[C@@H](OCCN(C)C)CC[C@@H]12 | 0.154 | 0.531
16 | O=S(=O)(Nc1ccc(Br)c(Cl)c1)c1ccc(-c2cnc(C3CC3)o2)cc1 | 0.263 | 2.86
17 | CC1(N)CCN(c2cccnc2NC(=O)c2nc(-c3ncccc3C(F)(F)F)cnc2N)CC1 | 14.1 | 52.8
18 | O=C1NC(=C(Cl)Cl)/C(=N/S(=O)(=O)N2CCCCC2CC2(C(F)(F)F)N=N2)N1 (centres undefined) | 1.16 | 3.91
19 | COc1cccc2c1ccc1nc3cccc(C(=O)N[C@H](C)CN(C)C)c3nc12 | 0.12 | 0.485
20 | Nc1nc(N)c2nc(CNc3ccc(C(=O)NC(CC(=O)O)C(=O)O)cc3)cnc2n1 (centres undefined) | 1.37 | > 100
21 | Cc1ccc(-c2nc(C#N)c(S(=O)(=O)n3nc(C)cc3N)o2)cc1 | 2.72 | 7.96
22 | CCn1cnc(C[C@H](NC(=O)[C@@H](NC(=O)Nc2cc(C(F)(F)F)cc(C(F)(F)F)c2)C(C)C)C(=O)OC)c1 | 1.74 | 3.57
23 | CNCCCn1c2c(c3ccc([N+](=O)[O-])cc3c1=O)C(=O)c1cc(OC)cnc1-2 | 0.0335 | 0.189
24 | CN(C)C(=S)/N=c1\ssc(=S)n1Cc1cccnc1 | 3.07 | > 100
25 | COc1ccc(-c2nc(/C=N/Nc3cc(C)nc4ccc(Cl)cc34)c(C)o2)cc1 | 1.93 | 3.71
26 | CCC1CN2C(=N1)c1ccccc1-c1cc(Cl)ccc12 (centres undefined) | 2.16 | 6.85
27 | CC(=O)OC[C@]12CC[C@@H](C(=O)CBr)[C@@H]1[C@H]1CC[C@@H]3[C@@]4(C)CCCNC(C)(C)[C@@H]4CC[C@@]3(C)[C@]1(C)CC2 | 2.12 | 5.66

Reference: PubChem BioAssay (NCI)
